≈ marks a conversion by molar mass, not a printed value. Calls of active or inactive are those of the source. The rule behind the calls is not given here.
Columns and labels:
Assay type in all cases: functional
Candida albicans [1] = assay: Antifungal activity against Candida albicans ATCC 10231 assessed as growth inhibition at 100 ug/mL after 3 to 4 days by agar diffusion method; settings: read-out: DIZ
Staphylococcus aureus [2] = assay: Antibacterial activity against Staphylococcus aureus ATCC 25923 assessed as growth inhibition at 100 ug/mL after 24 hr by cup-plate method; settings: ATCC 25923, 24 h, read-out: DIZ
Staphylococcus aureus [3] = assay: Antibacterial activity against Staphylococcus aureus ATCC 25923 assessed as growth inhibition after 24 hr by broth dilution method
Rhizopus arrhizus [4] = assay: Antifungal activity against Rhizopus oryzae MTCC 262 assessed as growth inhibition at 100 ug/mL after 3 to 4 days by agar diffusion method; settings: read-out: DIZ
Escherichia coli [5] = assay: Antibacterial activity against Escherichia coli ATCC 25922 assessed as growth inhibition at 100 ug/mL after 24 hr by cup-plate method; settings: ATCC 25922, 24 h, read-out: DIZ
Rhizopus arrhizus [6] = assay: Antifungal activity against Rhizopus oryzae MTCC 262 assessed as growth inhibition after 48 hr by broth dilution method
Candida albicans [7] = assay: Antifungal activity against Candida albicans ATCC 10231 assessed as growth inhibition after 48 hr by broth dilution method
Aspergillus niger [8] = assay: Antifungal activity against Aspergillus niger ATCC 16404 assessed as growth inhibition at 100 ug/mL after 3 to 4 days by agar diffusion method; settings: read-out: DIZ
Pseudomonas aeruginosa [9] = assay: Antibacterial activity against Pseudomonas aeruginosa ATCC 27853 assessed as growth inhibition at 100 ug/mL after 24 hr by cup-plate method; settings: ATCC 27853, 24 h, read-out: DIZ
Escherichia coli [10] = assay: Antibacterial activity against Escherichia coli ATCC 25922 assessed as growth inhibition after 24 hr by broth dilution method
Aspergillus niger [11] = assay: Antifungal activity against Aspergillus niger ATCC 16404 assessed as growth inhibition after 48 hr by broth dilution method
Pseudomonas aeruginosa [12] = assay: Antibacterial activity against Pseudomonas aeruginosa ATCC 27853 assessed as growth inhibition after 24 hr by broth dilution method

| SMILES | MIC (Staphylococcus aureus [3]) | MIC (Rhizopus arrhizus [6]) | MIC (Candida albicans [7]) | MIC (Escherichia coli [10]) | MIC (Aspergillus niger [11]; ATCC 16404, 48 h) [µg/mL] | MIC (Pseudomonas aeruginosa [12]; ATCC 27853, 24 h) [µg/mL] | MIC (Staphylococcus aureus [3]; ATCC 25923, 24 h) [µg/mL] | MIC (Rhizopus arrhizus [6]; MTCC 262, 48 h) [µg/mL] | MIC (Candida albicans [7]; ATCC 10231, 48 h) [µg/mL] | MIC (Escherichia coli [10]; ATCC 25922, 24 h) [µg/mL] | MIC (Aspergillus niger [11]) | MIC (Pseudomonas aeruginosa [12]) | zone of inhibition at 100 µg/mL (Candida albicans [1]) [mm] | zone of inhibition at 100 µg/mL (Staphylococcus aureus [2]) [mm] | zone of inhibition at 100 µg/mL (Rhizopus arrhizus [4]) [mm] | zone of inhibition at 100 µg/mL (Escherichia coli [5]) [mm] | zone of inhibition at 100 µg/mL (Aspergillus niger [8]) [mm] | zone of inhibition at 100 µg/mL (Pseudomonas aeruginosa [9]) [mm] |
| --- | --- | --- | --- | --- | --- | --- | --- | --- | --- | --- | --- | --- | --- | --- | --- | --- | --- | --- |
| O=c1cc(-c2ccc(Cl)cc2)oc2cc3oc(-c4ccc(Cl)cc4)cc(=O)c3cc12 | – | – | – | – | 50 (≈ 115 µM) | 25 (≈ 57.4 µM) | 12.5 (≈ 28.7 µM) | 25 (≈ 57.4 µM) | 12.5 (≈ 28.7 µM) | 25 (≈ 57.4 µM) | – | – | 15 | 15 | 15 | 15 | 10 | 15 |
| CC(=O)c1cc(C(C)=O)c(OC(=O)c2cccc([N+](=O)[O-])c2)cc1OC(=O)c1cccc([N+](=O)[O-])c1 | – | inactive | – | inactive | – | – | > 100 | – | > 100 | – | inactive | inactive | 5 | 5 | < 5 | < 5 | < 5 | < 5 |
| Cc1ccccc1-c1cc(=O)c2cc3c(=O)cc(-c4ccccc4C)oc3cc2o1 | – | – | – | – | > 100 | 50 (≈ 127 µM) | 50 (≈ 127 µM) | > 100 | 50 (≈ 127 µM) | > 100 | – | – | 10 | 10 | 5 | 5 | 5 | 10 |
| CC(=O)c1cc(C(C)=O)c(OC(=O)c2ccc(Cl)cc2)cc1OC(=O)c1ccc(Cl)cc1 | – | – | – | – | – | – | > 100 | > 100 | > 100 | > 100 | inactive | inactive | 5 | 5 | 5 | 5 | < 5 | < 5 |
| COc1cc(-c2cc(=O)c3cc4c(=O)cc(-c5cc(OC)c(OC)c(OC)c5)oc4cc3o2)cc(OC)c1OC | – | – | – | – | 50 (≈ 91.5 µM) | > 100 | > 100 | 50 (≈ 91.5 µM) | 50 (≈ 91.5 µM) | 50 (≈ 91.5 µM) | – | – | 10 | 5 | 10 | 10 | 10 | 5 |
| O=c1cc(-c2cccc(Cl)c2)oc2cc3oc(-c4cccc(Cl)c4)cc(=O)c3cc12 | – | – | – | – | 25 (≈ 57.4 µM) | 25 (≈ 57.4 µM) | 25 (≈ 57.4 µM) | 50 (≈ 115 µM) | 50 (≈ 115 µM) | 50 (≈ 115 µM) | – | – | 10 | 15 | 10 | 10 | 15 | 15 |
| COc1ccccc1C(=O)Oc1cc(OC(=O)c2ccccc2OC)c(C(C)=O)cc1C(C)=O | inactive | inactive | inactive | inactive | > 100 | > 100 | – | – | – | – | – | – | < 5 | < 5 | < 5 | < 5 | 5 | 5 |

Now from value to molecule, other results behind:

| MIC (Staphylococcus aureus [3]) | MIC (Rhizopus arrhizus [6]) | MIC (Candida albicans [7]) | MIC (Escherichia coli [10]) | MIC (Aspergillus niger [11]; ATCC 16404, 48 h) [µg/mL] | MIC (Pseudomonas aeruginosa [12]; ATCC 27853, 24 h) [µg/mL] | MIC (Staphylococcus aureus [3]; ATCC 25923, 24 h) [µg/mL] | MIC (Rhizopus arrhizus [6]; MTCC 262, 48 h) [µg/mL] | MIC (Candida albicans [7]; ATCC 10231, 48 h) [µg/mL] | MIC (Escherichia coli [10]; ATCC 25922, 24 h) [µg/mL] | MIC (Aspergillus niger [11]) | MIC (Pseudomonas aeruginosa [12]) | SMILES | zone of inhibition at 100 µg/mL (Candida albicans [1]) [mm] | zone of inhibition at 100 µg/mL (Staphylococcus aureus [2]) [mm] | zone of inhibition at 100 µg/mL (Rhizopus arrhizus [4]) [mm] | zone of inhibition at 100 µg/mL (Escherichia coli [5]) [mm] | zone of inhibition at 100 µg/mL (Aspergillus niger [8]) [mm] | zone of inhibition at 100 µg/mL (Pseudomonas aeruginosa [9]) [mm] |
| --- | --- | --- | --- | --- | --- | --- | --- | --- | --- | --- | --- | --- | --- | --- | --- | --- | --- | --- |
| inactive | inactive | inactive | inactive | > 100 | > 100 | – | – | – | – | – | – | CCN(CC)c1ccc(/C=C/C(=O)c2cc(C(=O)/C=C/c3ccc(N(CC)CC)cc3)c(OC)cc2OC)cc1 | < 5 | < 5 | < 5 | < 5 | 5 | 5 |
| – | – | – | – | > 100 | 50 (≈ 110 µM) | 50 (≈ 110 µM) | 50 (≈ 110 µM) | 50 (≈ 110 µM) | 25 (≈ 54.8 µM) | – | – | CN(C)c1ccc(/C=C/C(=O)c2cc(C(=O)/C=C/c3ccc(N(C)C)cc3)c(O)cc2O)cc1 | 10 | 10 | 10 | 15 | 5 | 10 |
| – | – | – | – | 25 (≈ 71.4 µM) | 12.5 (≈ 35.7 µM) | 25 (≈ 71.4 µM) | 50 (≈ 143 µM) | 12.5 (≈ 35.7 µM) | 12.5 (≈ 35.7 µM) | – | – | O=C(/C=C/c1ccco1)c1cc(C(=O)/C=C/c2ccco2)c(O)cc1O | 15 | 15 | 10 | 15 | 15 | 15 |
| – | – | – | – | 50 (≈ 116 µM) | 50 (≈ 116 µM) | 50 (≈ 116 µM) | 25 (≈ 58.1 µM) | 25 (≈ 58.1 µM) | 50 (≈ 116 µM) | – | – | COc1cccc(/C=C/C(=O)c2cc(C(=O)/C=C/c3cccc(OC)c3)c(O)cc2O)c1 | 15 | 10 | 15 | 10 | 10 | 10 |
| – | inactive | – | inactive | – | > 100 | > 100 | – | > 100 | – | inactive | – | Cc1ccccc1/C=C/C(=O)c1cc(C(=O)/C=C/c2ccccc2C)c(O)cc1O | 5 | 5 | < 5 | < 5 | < 5 | 5 |

Reference: ChEMBL document CHEMBL3046640, “Synthesis and antimicrobial activity of bischalcone derivatives” (2013)
